Usually GI50 stands for the concentration at which growth is held to half of that of the control. In general, TGI refers to the concentration at which net growth stops. A lower TGI goes with more potent growth arrest.

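These data come from cells grown in 96-well plates and exposed to compound for 48 hours at five concentrations. At the GI50, growth is halved. At the TGI there is no net growth.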

The test system of one assay is SK-MEL-28 melanoma. The assay is described as follows: DTP human tumour cell line panel, 48 h.
For `CC(=O)OC1OC([C@@H]2c3cccc(O)c3C(=O)c3c(O)cc(C)cc32)C(O)C(O)C1O` (some centres not stated), the GI50 was 0.0514 µM and the TGI stood at 3.6 µM.

Consider `Cc1ccc(CN2CCC(C(=O)Nc3ccc(-c4cc5ccccc5[nH]4)cc3)CC2)o1`, for which the GI50 is 88.9 µM and the TGI was above 100 µM.

For `C=CCOc1ccc2c(C)cc(=O)oc2c1C`, the TGI is above 100 µM.

Regarding `Nc1c(C(=O)c2cccc(CCS(N)(=O)=O)c2)cnn1-c1ccc(F)cc1`, the GI50 is above 25 µM and the total growth inhibition concentration (TGI) was above 25 µM.

With `Cc1ccc2c(C)c3c(ccc4ccccc43)c[n+]2c1`, the GI50 is 4.68 µM and the TGI was found to be 18.4 µM.

As to `COC(=O)/C=C1\S/C(=N\NC(=O)c2cc3ccc2/C=C\c2ccc(cc2)/C=C\3)N(c2ccccc2)C1=O`, the GI50 was 2.97 µM and the TGI was 9.87 µM.

`Fc1ccc(NC(=S)SCc2ccc3c(c2)OCO3)cc1F` showed a TGI of 13 µM.

As to `Cc1ccsc1C(=S)Nc1ccc(Cl)c(/C=N/OC(C)(C)C)c1`, the TGI was above 100 µM.

For the compound `COc1cc2c(c(OC)c1OC)-c1ccc(NNC(N)=S)c(=O)cc1[C@@H](NC(C)=O)CC2`, the GI50 was 0.777 µM and the concentration for total growth inhibition (TGI) was above 100 µM.

The test system of the next assay is BT-549 breast. The assay is described as follows: DTP human tumour cell line panel, 48 h.
Take `CC(=O)OC1OC([C@@H]2c3cccc(O)c3C(=O)c3c(O)cc(C)cc32)C(O)C(O)C1O` (some centres not stated): the GI50 is 0.0181 µM and the TGI worked out at 0.778 µM.

On to `Cc1ccc(CN2CCC(C(=O)Nc3ccc(-c4cc5ccccc5[nH]4)cc3)CC2)o1`, for which the GI50 was above 100 µM and the TGI is above 100 µM.

The compound `C=CCOc1ccc2c(C)cc(=O)oc2c1C` gave a TGI above 100 µM.

Take `Nc1c(C(=O)c2cccc(CCS(N)(=O)=O)c2)cnn1-c1ccc(F)cc1`: the GI50 is above 25 µM and the TGI is above 25 µM.

For the compound `Cc1ccc2c(C)c3c(ccc4ccccc43)c[n+]2c1`, the GI50 was 3.57 µM and the total growth inhibition concentration (TGI) was determined as 16.6 µM.

Turning to `COC(=O)/C=C1\S/C(=N\NC(=O)c2cc3ccc2/C=C\c2ccc(cc2)/C=C\3)N(c2ccccc2)C1=O`, the GI50 is 2.22 µM and the TGI was found to be 5.35 µM.

As to `Fc1ccc(NC(=S)SCc2ccc3c(c2)OCO3)cc1F`, the TGI came out at 51.4 µM. In other words, the double-digit micromolar range.

With `Cc1ccsc1C(=S)Nc1ccc(Cl)c(/C=N/OC(C)(C)C)c1`, the TGI was 59.8 µM.

Take `COc1cc2c(c(OC)c1OC)-c1ccc(NNC(N)=S)c(=O)cc1[C@@H](NC(C)=O)CC2`: the GI50 is 0.37 µM.

In another assay the test system is HOP-62 NSCLC. The assay is described as follows: DTP human tumour cell line panel, 48 h.
As to `CC(=O)OC1OC([C@@H]2c3cccc(O)c3C(=O)c3c(O)cc(C)cc32)C(O)C(O)C1O` (some centres not stated), the GI50 is 0.0985 µM and the TGI amounted to 0.995 µM.

Consider `Cc1ccc(CN2CCC(C(=O)Nc3ccc(-c4cc5ccccc5[nH]4)cc3)CC2)o1`, for which the GI50 was 55.8 µM and the TGI is above 100 µM.

The compound `C=CCOc1ccc2c(C)cc(=O)oc2c1C` showed a TGI above 100 µM.

Turning to `Nc1c(C(=O)c2cccc(CCS(N)(=O)=O)c2)cnn1-c1ccc(F)cc1`, the GI50 was above 25 µM and the TGI was above 25 µM.

On to `Cc1ccc2c(C)c3c(ccc4ccccc43)c[n+]2c1`, for which the GI50 is 5.93 µM and the total growth inhibition concentration (TGI) came out at 24.7 µM.

In the case of `COC(=O)/C=C1\S/C(=N\NC(=O)c2cc3ccc2/C=C\c2ccc(cc2)/C=C\3)N(c2ccccc2)C1=O`, the GI50 is 2.68 µM and the TGI amounted to 6.97 µM.

Turning to `Fc1ccc(NC(=S)SCc2ccc3c(c2)OCO3)cc1F`, the TGI is above 100 µM.

In turn, `Cc1ccsc1C(=S)Nc1ccc(Cl)c(/C=N/OC(C)(C)C)c1` yielded a TGI above 100 µM.

Take `COc1cc2c(c(OC)c1OC)-c1ccc(NNC(N)=S)c(=O)cc1[C@@H](NC(C)=O)CC2`: the GI50 is 0.739 µM and the TGI was above 100 µM.

A further assay concerns ACHN renal. The assay is described as follows: DTP human tumour cell line panel, 48 h.
For `CC(=O)OC1OC([C@@H]2c3cccc(O)c3C(=O)c3c(O)cc(C)cc32)C(O)C(O)C1O` (some centres not stated), the GI50 was 0.0319 µM and the TGI was 0.282 µM.

Regarding `Cc1ccc(CN2CCC(C(=O)Nc3ccc(-c4cc5ccccc5[nH]4)cc3)CC2)o1`, the GI50 was above 100 µM and the TGI was above 100 µM.

For `C=CCOc1ccc2c(C)cc(=O)oc2c1C`, the TGI was above 100 µM.

Regarding `Nc1c(C(=O)c2cccc(CCS(N)(=O)=O)c2)cnn1-c1ccc(F)cc1`, the GI50 is above 25 µM and the TGI is above 25 µM.

`Cc1ccc2c(C)c3c(ccc4ccccc43)c[n+]2c1`: the GI50 was 29.6 µM and the TGI was above 100 µM.

Take `COC(=O)/C=C1\S/C(=N\NC(=O)c2cc3ccc2/C=C\c2ccc(cc2)/C=C\3)N(c2ccccc2)C1=O`: the GI50 was 1.78 µM and the TGI was determined as 3.29 µM.

As to `Fc1ccc(NC(=S)SCc2ccc3c(c2)OCO3)cc1F`, the TGI turned out to be 64.4 µM.

`Cc1ccsc1C(=S)Nc1ccc(Cl)c(/C=N/OC(C)(C)C)c1`: the TGI amounted to 75.7 µM. This TGI and that of the compound before are within 1.5-fold of each other.

`COc1cc2c(c(OC)c1OC)-c1ccc(NNC(N)=S)c(=O)cc1[C@@H](NC(C)=O)CC2`: the GI50 was 7.19 µM and the TGI was above 100 µM.

A further assay has as its system SF-295 CNS. In words: DTP human tumour cell line panel, 48 h.
On to `CC(=O)OC1OC([C@@H]2c3cccc(O)c3C(=O)c3c(O)cc(C)cc32)C(O)C(O)C1O` (some centres not stated), for which the GI50 is below 0.0166 µM and the TGI turned out to be 0.119 µM.

Consider `Cc1ccc(CN2CCC(C(=O)Nc3ccc(-c4cc5ccccc5[nH]4)cc3)CC2)o1`, for which the GI50 is 71 µM and the TGI was above 100 µM.

Regarding `C=CCOc1ccc2c(C)cc(=O)oc2c1C`, the TGI was 58.5 µM.

On to `Nc1c(C(=O)c2cccc(CCS(N)(=O)=O)c2)cnn1-c1ccc(F)cc1`, for which the GI50 was above 25 µM and the TGI is above 25 µM.

Regarding `Cc1ccc2c(C)c3c(ccc4ccccc43)c[n+]2c1`, the GI50 was 3.04 µM and the TGI is 31.7 µM.

For `COC(=O)/C=C1\S/C(=N\NC(=O)c2cc3ccc2/C=C\c2ccc(cc2)/C=C\3)N(c2ccccc2)C1=O`, the GI50 was 2.07 µM and the TGI amounted to 4.19 µM.

For `Fc1ccc(NC(=S)SCc2ccc3c(c2)OCO3)cc1F`, the TGI is above 100 µM.

In turn, `Cc1ccsc1C(=S)Nc1ccc(Cl)c(/C=N/OC(C)(C)C)c1` displayed a TGI above 100 µM.

With `COc1cc2c(c(OC)c1OC)-c1ccc(NNC(N)=S)c(=O)cc1[C@@H](NC(C)=O)CC2`, the GI50 is 0.63 µM and the TGI was above 100 µM.

Another assay relates to MOLT-4 leukemia. In words: DTP human tumour cell line panel, 48 h.
With `CC(=O)OC1OC([C@@H]2c3cccc(O)c3C(=O)c3c(O)cc(C)cc32)C(O)C(O)C1O` (some centres not stated), the GI50 was 0.0384 µM and the total growth inhibition concentration (TGI) amounted to 0.662 µM.

As for `Cc1ccc(CN2CCC(C(=O)Nc3ccc(-c4cc5ccccc5[nH]4)cc3)CC2)o1`, the GI50 is above 100 µM and the TGI is above 100 µM.

`C=CCOc1ccc2c(C)cc(=O)oc2c1C`: the TGI was above 100 µM.

For `Nc1c(C(=O)c2cccc(CCS(N)(=O)=O)c2)cnn1-c1ccc(F)cc1`, the GI50 is above 25 µM and the TGI is above 25 µM.

For `Cc1ccc2c(C)c3c(ccc4ccccc43)c[n+]2c1`, the GI50 is 5.54 µM and the TGI is 28.4 µM.

As for `COC(=O)/C=C1\S/C(=N\NC(=O)c2cc3ccc2/C=C\c2ccc(cc2)/C=C\3)N(c2ccccc2)C1=O`, the GI50 is 3.12 µM and the TGI is above 100 µM.

The compound `Fc1ccc(NC(=S)SCc2ccc3c(c2)OCO3)cc1F` returned a TGI of 39.8 µM.

Consider `Cc1ccsc1C(=S)Nc1ccc(Cl)c(/C=N/OC(C)(C)C)c1`, for which the TGI is above 100 µM.

As to `COc1cc2c(c(OC)c1OC)-c1ccc(NNC(N)=S)c(=O)cc1[C@@H](NC(C)=O)CC2`, the GI50 was 0.568 µM and the TGI is above 100 µM.

In the next assay the test system is MDA-MB-231 breast. The assay is described as follows: DTP human tumour cell line panel, 48 h.
In the case of `CC(=O)OC1OC([C@@H]2c3cccc(O)c3C(=O)c3c(O)cc(C)cc32)C(O)C(O)C1O` (some centres not stated), the GI50 was below 0.0153 µM and the TGI turned out to be 0.0377 µM.

In the case of `Cc1ccc(CN2CCC(C(=O)Nc3ccc(-c4cc5ccccc5[nH]4)cc3)CC2)o1`, the GI50 is above 100 µM and the TGI was above 100 µM.

For the compound `C=CCOc1ccc2c(C)cc(=O)oc2c1C`, the TGI is above 100 µM.

As to `Nc1c(C(=O)c2cccc(CCS(N)(=O)=O)c2)cnn1-c1ccc(F)cc1`, the GI50 was above 25 µM and the concentration for total growth inhibition (TGI) is above 25 µM.

On to `Cc1ccc2c(C)c3c(ccc4ccccc43)c[n+]2c1`, for which the GI50 is 13.5 µM and the TGI was 46.2 µM.

Take `COC(=O)/C=C1\S/C(=N\NC(=O)c2cc3ccc2/C=C\c2ccc(cc2)/C=C\3)N(c2ccccc2)C1=O`: the GI50 is 2.63 µM and the TGI was determined as 7.46 µM.

`Fc1ccc(NC(=S)SCc2ccc3c(c2)OCO3)cc1F` registered a TGI above 100 µM.

As for `Cc1ccsc1C(=S)Nc1ccc(Cl)c(/C=N/OC(C)(C)C)c1`, the TGI stood at 69.9 µM.

For `COc1cc2c(c(OC)c1OC)-c1ccc(NNC(N)=S)c(=O)cc1[C@@H](NC(C)=O)CC2`, the GI50 is 0.327 µM and the TGI amounted to 3.52 µM.

The test system of another assay is NCI-H460 lung. The assay is described as follows: DTP human tumour cell line panel, 48 h.
Regarding `CC(=O)OC1OC([C@@H]2c3cccc(O)c3C(=O)c3c(O)cc(C)cc32)C(O)C(O)C1O` (some centres not stated), the GI50 is 0.108 µM.

In the case of `Cc1ccc(CN2CCC(C(=O)Nc3ccc(-c4cc5ccccc5[nH]4)cc3)CC2)o1`, the GI50 was above 100 µM and the TGI was above 100 µM.

Compound `C=CCOc1ccc2c(C)cc(=O)oc2c1C` yielded a TGI above 100 µM.

For the compound `Nc1c(C(=O)c2cccc(CCS(N)(=O)=O)c2)cnn1-c1ccc(F)cc1`, the GI50 is above 25 µM and the TGI is above 25 µM.

Take `Cc1ccc2c(C)c3c(ccc4ccccc43)c[n+]2c1`: the GI50 is 5.1 µM and the TGI turned out to be 25.1 µM.

In the case of `COC(=O)/C=C1\S/C(=N\NC(=O)c2cc3ccc2/C=C\c2ccc(cc2)/C=C\3)N(c2ccccc2)C1=O`, the GI50 is 2.08 µM and the TGI was determined as 4.29 µM.

In the case of `Fc1ccc(NC(=S)SCc2ccc3c(c2)OCO3)cc1F`, the TGI is above 100 µM.

`Cc1ccsc1C(=S)Nc1ccc(Cl)c(/C=N/OC(C)(C)C)c1` had a TGI above 100 µM.

Consider `COc1cc2c(c(OC)c1OC)-c1ccc(NNC(N)=S)c(=O)cc1[C@@H](NC(C)=O)CC2`, for which the GI50 was 0.397 µM.

For the origin of these results see PubChem BioAssay (NCI).
